# Read-outs that look alike come from different tables or passages of the source. Where a SMILES comes first, the peptide text is derived from it. Where no end group is shown, it is not given here.
# How the values were obtained:
# p34^cdc2 [1] = target: T1, p34^cdc2 (Homo sapiens, UniProt P06493); experiment: Peptide inhibition of p34^cdc2 immune complex histone H1 kinase activity; type: biochemical; parameters: endogenous in cells; host or cells: HeLa; settings: for inhibition at 50 µM: 50 μM peptide, p34^cdc2 immune complex from HeLa cells, histone H1 substrate, read-out: p34^cdc2 Inhib. (%)
# T1 sequence (P06493 whole entry): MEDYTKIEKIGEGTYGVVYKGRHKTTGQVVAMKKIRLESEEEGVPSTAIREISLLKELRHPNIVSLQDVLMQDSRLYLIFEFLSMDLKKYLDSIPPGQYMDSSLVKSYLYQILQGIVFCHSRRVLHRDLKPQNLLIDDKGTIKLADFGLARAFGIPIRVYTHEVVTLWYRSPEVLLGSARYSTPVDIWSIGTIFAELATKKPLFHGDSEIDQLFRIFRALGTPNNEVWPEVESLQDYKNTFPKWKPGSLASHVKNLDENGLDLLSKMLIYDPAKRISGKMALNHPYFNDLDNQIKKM
# Procedure: (§1) HeLa Cell Lysates: HeLa cell extracts served as a source of p34^cdc2 and p33^cdk2 and were prepared as follows. HeLa cells were lysed in 20 mM N-[2-hydroxyethyl]piperazine-N'-[2-[…]] (HEPES), pH 7.0, 150 mM NaCl, 5 mM sodium vanadate, 10 mM Na4 P2 O7, 1 mM ZnCl2, 2 mM ethylene-diaminetetraacetic acid (EDTA), 2 mM ethylene glycol-bis(β-aminoethyl ether)-N,N,N',N'-tetraacetic acid (EGTA), 1 mM dithiothreitol (DTT), 0.25% (v:v) NP-40, 1 mM Benzamidine, 1 mM phenylmethylsulfonyl fluoride (PMSF) and 20 μg/ml each: N2 S2 O3, leupeptin, Antipan and Pepstatin, followed by centrifugation to remove cell debris.
# Immunoprecipitation of p34^cdc2 : Immunoprecipitation of p34^cdc2 from HeLa cell extracts was performed using previously reported procedures (Harlow et al. (1988) in: Antibodies: A Laboratory Manual, ed. Harlow and Lane, Cold Spring Harbor: Cold Spring Harbor Laboratory, pp 421-470) and anti-p34^cdc2 antibody, G6 (Gibco, BRL). Immunoprecipitation by this method yields an activated kinase complex (Draetta et al. (1988), Cell 54:17-26).
# (§2) Assay of p34^cdc2 Kinase Activity: Histone H1 kinase reactions were performed in 50 mM Tris, pH 8.0, 10 mM MgCl2, 0.5 mM DTT, 1 mM EGTA plus 0.1 mM ATP, 1 μCi γ-[^32 P]-ATP and 10 μg histone H1 (Boeringer Mannheim), and a source of p34^cdc2. Reactions were incubated at 30° C. for 20 minutes and stopped by the addition of protein gel sample buffer. Kinase reactions were separated by SDS-PAGE (12.5% gel). The bands were detected by autoradiography and the amount of ^32 P incorporated was quantitated using an Ambis Radioanalytic Imaging System.
# As a further test of the association of p107 with p34^cdc2, and to define the minimal sequence necessary for interaction with p34^cdc2, the effect of p107 peptides on the p34^cdc2 immune complex histone H1 kinase activity was assessed. Both amino- and carboxy-terminal deletions were introduced into the original 30 amino acid peptide (see Table 1). The peptides were synthesized by standard methods and purified by HPLC. Immune complexes were formed as described in Example 4 and resuspended in kinase buffer plus 50 μM of the respective peptide solubilized in N,N-dimethylformamide, or an equal volume of solvent. After incubating the reactions for 15 minutes on ice, histone H1 and γ-[^32 P]-ATP were added and the kinase assays were performed and quantitated as described in Example 4.
# The binding affinity of the 9mer peptide for p34^cdc2 was approximated by relating the percent inhibition of histone H1 kinase activity to peptide concentration. Reactions were performed as described in Example 4. The percent inhibition was quantitated using an Ambis Radioanalytic Imaging System. The percent inhibition was plotted versus the peptide concentration. In calculating a binding constant, it was assumed that the concentration of substrate and peptide were in vast excess of the p34^cdc2 protein, which was assumed to be limiting in the reaction.
# p34^cdc2 [2] = target: T1, p34^cdc2; experiment: ELISA based competition assay: p34^cdc2 kinase from cell extracts binding to a p107 30mer coated plate; parameters: endogenous in cells; HeLa per the general methods
# From the text: An ELISA based assay was developed to measure the activity of p107 peptides and their derivatives. A 96-well cluster plate coated with the p107 30mer binds to p34^cdc2 kinase from cell extracts. This binding is easily detectable with anti-p34^cdc2 antibodies and can be used to quantitate the affinity of the p107 wild type and mutant peptides for the p34^cdc2 kinase in addition to the kinase inhibition assay described in Example 7. A summary of all modifications to the original p107 peptides and their effect on binding and kinase inhibition is presented in Table 1. The affinity of the p107 9mer peptide for p34^cdc2 kinase is approximately 10 μM as measured by the ELISA based competition assay, which is in agreement with the binding constant approximated from the kinase inhibition assay as described in Example 7.
# p34^cdc2 [3] = target: T1, p34^cdc2; experiment: p107 30mer-sepharose pull-down from HeLa cell lysate, western blot with anti-p34^cdc2 antibody; type: binding; parameters: endogenous in cells; host or cells: HeLa
# Procedure: as §1
# In order to test whether the α-helix II domain is involved in the interaction of Rb, p107 and cyclin E with p34^cdc2, a 30 amino acid peptide from p107 (residues 692-721: […] [SEQ ID NO:11]) encompassing α-helix II, was synthesized and assayed for its ability to associate with p34^cdc2. […] The concentration of 30mer linked to the bead was 0.85 μmole/ml as determined by HPLC. […] The bound proteins were eluted with increasing concentrations of NaCl, separated by sodium dodecyl sulfate-polyacrylamidegel electrophoresis (SDS-PAGE) (12.5% gel) and transferred to polyvinylidene difluoride (PVDF) membranes. p34^cdc2 was detected by probing the membrane with anti-p34^cdc2 antibody, G6 (Gibco, BRL) (see, Draetta et al. (1988), supra).
# p34^cdc2 [4] = target: T1, p34^cdc2; experiment: Histone H1 kinase activity of p107 30mer-sepharose bound versus immunoprecipitated p34^cdc2; type: biochemical; parameters: endogenous in cells; host or cells: HeLa
# Procedure: as §2
# In order to examine the effect of binding of p34^cdc2 to p107 30mer-sepharose on p34^cdc2 kinase activity, histone H1 kinase activities associated with p107 30mer-sepharose and immunoprecipitated p34^cdc2 were compared as follows. p34^cdc2 was bound to p107 30mer-sepharose as described in Example 2. Histone H1 kinase reactions were performed using either immunoprecipitated or p107 30mer-sepharose bound p34^cdc2. The amount of p34^cdc2 bound to p107 30mer-sepharose was compared with that contained within the immune complex by western blot. Two times the amount of immunoprecipitated p34^cdc2 used in the kinase reaction was blotted to facilitate easier detection. The amount of p34^cdc2 associated with the p107 30mer-sepharose was determined by densitometry to be ≥50 time greater than contained within the immune complexes.
# HPV16-E7 protein = HPV16-E7 protein (Human papillomavirus type 16, UniProt P03129); settings: CaSki cell extract, western blot
# Sequence of HPV16-E7 protein (P03129 whole entry, the tested form may be a part): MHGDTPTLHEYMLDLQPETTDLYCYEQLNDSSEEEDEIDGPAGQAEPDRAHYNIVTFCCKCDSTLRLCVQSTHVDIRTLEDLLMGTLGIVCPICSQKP
# From the text: Rb and p107 form specific complexes with the adenovirus E1A oncoprotein and Rb forms a similar complex with the E7 oncoprotein human papillomavirus (HPV). In order to determine whether the p107 30mer peptide domain and Rb may interact with other tumor suppressor proteins or other cellular and viral ligands, p107 30mer peptide binding to cellular and bacterially expressed human papillomavirus (HPV)-E7 protein was examined. p107 30 amino acid peptide-sepharose, prepared as described in Example 2, was incubated with CaSki cell (HPV-16 positive cervical carcinoma) extract and assayed for the binding of E7 protein.
# HPV18-E7 protein = target: T2, HPV18-E7 protein (Human papillomavirus type 18, UniProt P06788); experiment: biochemical; type: binding
# T2 construct: made in house
# T2 sequence (P06788 whole entry): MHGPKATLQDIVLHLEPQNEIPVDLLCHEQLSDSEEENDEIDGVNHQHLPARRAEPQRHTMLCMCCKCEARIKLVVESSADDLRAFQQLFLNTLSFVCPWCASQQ
# Procedure: The association of bacterially expressed HPV18-E7 protein with the p107 30mer peptide was analyzed using an ELISA assay. In the experiment depicted in FIG. 3A, a 96-well cluster plate was coated with p107 30mer peptide and incubated with increasing concentration of a MBP-E7 fusion protein or the MBP protein as a control. […] In the experiment depicted in FIG. 3B, MBP-E7 fusion protein (100 ng) was incubated with a p107 30mer peptide-coated plate in the presence of increasing concentrations of free p107 9mer peptide.
# [5] = Table 1 binding, assay not given, taken as ELISA competition for p34^cdc2 binding, read-out: IC50
Compound,inhibition at 50 µM (p34^cdc2 [1]) [%],IC50 (p34^cdc2 [2]; [5]) [µM],also measured
"LCAFYIM [C7mer, LCAFYIM]",70,,
"LCEFYIMAK [714AE, LCEFYIMAK]",0,23,
"RKRCAFYI [PKG-NC5mer, RKRCAFYI]",0,,
p107 30mer-sepharose: p107 30mer covalently linked to CH-activated sepharose 4B (FEFTLVHCPDLMKDRHLDQLLLCAFYIMAK; cysteine pairing not given here; also: covalently linked to CH-activated sepharose 4B),,,"binding to p34^cdc2 (p34^cdc2 [3]; HeLa cell lysate, western blot): binds; stability of the complex with p34^cdc2 to NaCl elution (p34^cdc2 [3]; elution with increasing concentrations of NaCl): stable to 2M NaCl; amount of p34^cdc2 associated relative to that within the immune complexes (p34^cdc2 [4]; western blot densitometry): ≥ 50 time greater; binding to HPV16-E7 protein (HPV16-E7 protein): did bind"
"LCAFYI [C6mer, LCAFYI]",79,,
"CAFYIGSPKK [NC5mer-SPKK, CAFYIGSPKK]",80,,
"YIMAK [N5mer, YIMAK]",0,,IC50 (p34^cdc2 [2]): > 100 µM
"C[C@H](NC(=O)[C@@H](N)CS)C(=O)N[C@@H](Cc1ccccc1)C(=O)N[C@@H](Cc1ccc(O)cc1)C(=O)O [NC4mer, CAFY] (H-CAFY-OH)",0,,
"LFAFYIMAK [713CF, LFAFYIMAK]",60,15,decrease in the peptide's ability to inhibit histone H1 kinase activity (p34^cdc2 [1]; versus 9mer): 30%
DLMKDRHLDQLLLCAFYIMAK [21mer],70,,
"CAFYI [NC5mer, CAFYI]",82,13,
"LCAKYIMAK [715FK, LCAKYIMAK]",0,> 100,
"LCAYYIMAK [715FY, LCAYYIMAK]",20,45,
"LCAFYIMAK [9mer, LCAFYIMAK]",90,9,"Kd (HPV18-E7 protein): ~0.001 µM; Kd (p34^cdc2 [2]; ELISA based competition assay, read-out: affinity for p34^cdc2 kinase): ~10 µM; Kd (p34^cdc2 [1]; percent inhibition plotted versus peptide concentration, FIG. 2, read-out: kd calculated from the point of 50% inhibition of histone H1 kinase activity): ~10 µM"
"LCAFYKMAK [717IK, LCAFYKMAK]",0,> 100,
"PKKKRKVCAFYI [SV-NC5mer, PKKKRKVCAFYI]",0,,
"KDRHLDQLLLCAFYIMAK [18mer, KDRHLDQLLLCAFYIMAK]",80,,
"LCAFAIMAK [716YA, LCAFAIMAK]",0,40,
"AFYIMAK [N7mer, AFYIMAK]",0,,
"LCAAYIMAK [715FA, LCAAYIMAK]",0,> 100,
"LDQLLLCAFYIMAK [14mer, LDQLLLCAFYIMAK]",80,,
"LCAFY [C5mer, LCAFY]",0,,
"LCAFFIMAK [716YF, LCAFFIMAK]",80,25,
"SPKKGCAFYI [SPKK-NC5mer, SPKKGCAFYI]",0,,
"RRCAFYI [RR-NC5mer, RRCAFYI]",0,,
CC[C@H](C)[C@H](NC(=O)[C@H](Cc1ccc(O)cc1)NC(=O)[C@H](Cc1ccccc1)NC(=O)[C@H](C)NC(=O)[C@H](CS)NC(=O)[C@H](CC(C)C)NC(=O)[C@H](CC(C)C)NC(=O)[C@H](CC(C)C)NC(=O)[C@H](CCC(N)=O)NC(=O)[C@H](CC(=O)O)NC(=O)[C@H](CC(C)C)NC(=O)[C@H](Cc1c[nH]cn1)NC(=O)[C@H](CCCNC(=N)N)NC(=O)[C@H](CC(=O)O)NC(=O)[C@H](CCCCN)NC(=O)[C@H](CCSC)NC(=O)[C@H](CC(C)C)NC(=O)[C@H](CC(=O)O)NC(=O)[C@@H]1CCCN1C(=O)[C@H](CS)NC(=O)[C@H](Cc1c[nH]cn1)NC(=O)[C@@H](NC(=O)[C@H](CC(C)C)NC(=O)[C@@H](NC(=O)[C@H](Cc1ccccc1)NC(=O)[C@H](CCC(=O)O)NC(=O)[C@@H](N)Cc1ccccc1)[C@@H](C)O)C(C)C)C(=O)N[C@@H](CCSC)C(=O)N[C@@H](C)C(=O)N[C@@H](CCCCN)C(=O)O [30mer] (H-FEFTLVHCPDLMKDRHLDQLLLCAFYIMAK-OH),,,specific activity of peptide bound enzyme relative to the specific activity of the immune complex (p34^cdc2 [4]; normalized for the amount of p34^cdc2 protein): 1.4%
"LCAFYIMQK [719AQ, LCAFYIMQK]",75,,

# From patent US5625031A, “Peptide inhibitors of the p33^cdk2 and p34^cdc2 cell cycle regulatory kinases and human papillomavirus E7 oncoprotein” (Bristol-Myers Squibb Company, priority 1994, dated 1997)
